Source: patent publication US20060281700A1, “SYNERGISTIC MODULATION OF FLT3 KINASE USING AMINOPYRIMIDINES KINASE MODULATORS” (priority 2005, published 2006)

How the values were obtained:
MV4-11 AML cells = assay: Cell proliferation assay, single agents and FTI/FLT3 inhibitor combinations, MV4-11; type: cell-based, human
Procedure: Using this method inhibitors are added simultaneously to cells in a ratio of the IC50 dose of each compound alone. The data is collected and subject to isobolar analysis of fixed ratio dose combinations as described by Chou and Talalay. This analysis is used to generate a combination index or CI. The CI value of 1 corresponds to compounds that behave additively; CI values <0.9 are considered synergistic and CI values of >1.1 are considered antagonistic. Using this method, multiple FTI and FLT3 combinations were evaluated. […] Using the isobologram, synergy can be graphically represented. Data points for combinations that are additive lie along the isobolar line at a given dose affect (CI=1). Data points for combinations that are synergistic fall to the left, or under, the isobolar line for a given dose effect (CI<0.9). Data points for combinations that are antagonistic fall to the right, or over, the isobolar line for a given dose effect (CI>1.1).
Inhibition data was analyzed using Calcsyn (BioSoft, Ferguson, Mo.) and the combination index (C.I.) calculated. C.I. values <0.9 are considered synergistic.

[1] = cited from earlier work
MV4-11 cells = assay: Annexin V Staining (apoptosis); type: cell-based, human; conditions: MV4-11, 48 hours, fixed ratio 4:1 Tipifarnib and Compound A
Description: The ultimate goal of treatment for FLT3 related disorders is to kill the disease causative cells and to cause regression of disease. […] Annexin V binding to phosphotidyl serine that has translocated from the inner leaflet of the plasma membrane to the outer leaflet of the plasma membrane and is a well established way to measure apoptosis of cells. See van Engeland M., L. J. Nieland, et al. (1998) “Annexin V-affinity assay: a review on an apoptosis detection system based on phosphatidylserine exposure.” Cytometry. 31(1):1-9.
After the compound incubations, treated cells were harvested and stained with Annexin V-PE and 7-AAD using the Guava Nexin apoptosis kit according to the protocol in the Biological Activity Measurements section hereafter. Annexin V staining peaks at 60% because cells late in apoptosis begin to fall apart and are considered debris. […] Statistical analysis using the above described method of Chou and Talalay was also performed to determine the synergy of the combination. […] The magnitude of the synergistic induction of apoptosis of MV4-11 cells by the combination of an FTI and a FLT3 inhibitor could not be predicted by those skilled in the art. […]
Annexin V Staining. […] All annexin positive cells were considered apoptotic and percent Annexin positive cells was calculated.

Baf3-ITD cells = assay: Cell proliferation assay, single agents and FTI/FLT3 inhibitor combinations, Baf3-ITD; type: cell-based, murine
Procedure: The cell lines that were tested included those that are dependent on FLT3ITD mutant activity for growth (MV4-11 and Baf3-FLT3ITD), FLT3 wt activity for growth (Baf3FLT3) and those that grow independent of FLT3 activity (THP-1). […] Baf3-FLT3 and Baf3-FLT3ITD cell lines were obtained from Dr. Michael Henrich and the Oregon Health Sciences University. The Baf3 FLT3 cell lines were created by stable transfection of parental Baf3 cells (a murine B cell lymphoma line dependent on the cytokine IL-3 for growth) with either wild-type FLT3 or FLT3 containing the ITD insertion in the juxatamembrane domain of the receptor resulting in its constitutive activation. Cells were selected for their ability to grow in the absence of IL-3 and in either the presence of FLT3 ligand (Baf3-FLT3) or independent of any growth factor (Baf3-ITD). […]
Dose responses for the individual compounds alone were determined for each cell line using a standard 72-hour cell proliferation assay (see FIGS. 6.1-6.8). […]
To statistically evaluate the synergy of a FLT3 inhibitor and an FTI in FLT3 dependent cell lines, dosing combinations were evaluated by the method of Chou and Talalay. See Chou T C, Talalay P. (1984) “Quantitative analysis of dose-effect relationships: the combined effects of multiple drugs or enzyme inhibitors.” Adv Enzyme Regul. […] Using this method, multiple FTI and FLT3 combinations were evaluated. […]

[2] = multicenter Phase II trial, relapsed AML
[3] = patients with relapsed and refractory AML, phase I

Question: With `Cn1cncc1C(N)(c1ccc(Cl)cc1)c1ccc2c(c1)c(-c1cccc(Cl)c1)cc(=O)n2C` (single isomer, unassigned; (+)) [Tipifarnib, (+)-6-[amino(4-chlorophenyl)(1-methyl-1H-imidazol-5-yl)methyl]-4-(3-chlorophenyl)-1-methyl-2(1H)-quinolinone] as the compound, how does the IC50 (MV4-11 AML cells; Homo sapiens, MV4-11 proliferation, FTI alone or in the combination named) read?
Answer: Its IC50 is 15.4 nM.

Question: What about the “increase in potency of Tipifarnib with a single sub-IC50 dose of FLT3 inhibitor Compound A” value (MV4-11 AML cells; MV4-11, Compound A 50 nM) of the same compound?
Answer: The value was “more than 3 fold”.

Question: What about the “>50% reduction in bone marrow blasts” value [1, 2] of the same compound?
Answer: Its value is 31 of 50.

Question: And the “complete responses (bone marrow blasts <5%)” value [1, 2]?
Answer: The value was 17 of 50.

Question: What about the “patients achieving complete remission” value [1, 3] of the same compound?
Answer: The value was 2 patients.

Question: And the response rate [1, 3]?
Answer: The response rate was roughly 30%.

Question: What about the “shift of EC50 for the induction of annexin V staining in combination” value (MV4-11 cells) of the same compound?
Answer: The value was “more than eight-fold”.

Question: What about the “increase in potency of Tipifarnib with a single sub-IC50 dose of FLT3 inhibitor Compound A” value (Baf3-ITD cells; Baf3-ITD, Compound A 50 nM) of the same compound?
Answer: The value was “more than 3 fold”.

Question: And the IC50 (Baf3-ITD cells; Mus musculus, Baf3-ITD proliferation, FTI alone or in the combination named)?
Answer: Its IC50 is 548 nM.
